Patent US11530206B2, “Phenylaminopyrimidine amide autophagy inhibitors and methods of use thereof” (Deciphera Pharmaceuticals, LLC, priority 2019, dated 2022)

target: T1, ULK1 kinase (Homo sapiens, UniProt O75385, E37A/K38A); test: Biochemical assay for ULK1.3 (coupled pyruvate kinase/lactate dehydrogenase assay, peptide substrate); conditions: 0.1 nM ULK1 (residues 1-283), 1 mM ATP
T1 construct: purchased Beryllium
T1 sequence (O75385 1-283 E37A/K38A): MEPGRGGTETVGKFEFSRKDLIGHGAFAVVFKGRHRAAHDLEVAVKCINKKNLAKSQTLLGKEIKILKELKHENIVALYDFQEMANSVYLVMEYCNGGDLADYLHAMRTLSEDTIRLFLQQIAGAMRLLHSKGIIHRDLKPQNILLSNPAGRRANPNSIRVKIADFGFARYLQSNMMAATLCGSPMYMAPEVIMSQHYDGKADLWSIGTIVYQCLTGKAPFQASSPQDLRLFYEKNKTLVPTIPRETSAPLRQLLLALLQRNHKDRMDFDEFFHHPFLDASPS
How it was run: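 ULK1.3 activity was followed by continuous decrease in 340 nm absorbance over 6 h at 30 °C with 1% DMSO final. Rates were taken from the 2–3 h window and converted to percent inhibition against no-compound and known-inhibitor controls. IC50 values came from curve fitting.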

| Compound | IC50 [nM] |
| --- | --- |
| CCc1cc(N2CCNCC2)ccc1Nc1ncc(C(F)(F)F)c(NCCCN2CCCOC2=O)n1 [Example 46] | 1 to 25 |
| CN1CCN(c2ccc(Nc3ncc(C(F)(F)F)c(NCCCN4CCCOCC4=O)n3)c(C3CC3)c2)CC1 [Example 52] | 1 to 25 |
| CCc1cc(N2CC3CCC(C2)N3C)ccc1Nc1ncc(C(F)(F)F)c(NCCCN2CCOCCC2=O)n1 [Example 74] | 1 to 25 |
| CN1CCN(c2ccc(Nc3ncc(C(F)(F)F)c(NCCCN4CCCCC4=O)n3)c(C3CC3)c2)CC1 [Example 14] | 1 to 25 |
| CN1CCN(c2ccc(Nc3ncc(C(F)(F)F)c(NCCCN4CCCOC4=O)n3)c(C3CC3)c2)CC1 [Example 41] | 1 to 25 |
| CCc1cc(N2CCN(C)CC2)ccc1Nc1ncc(C(F)(F)F)c(NCCCN2CCCOC2=O)n1 [Example 39] | 1 to 25 |

Next, values leading:

| IC50 [nM] | Compound |
| --- | --- |
| 1 to 25 | CN1CCN(c2ccc(Nc3ncc(C(F)(F)F)c(NCCCN4CCOCCC4=O)n3)c(C3CC3)c2)CC1 [Example 70] |
| 25 to 100 | CCc1cc(N2CCN(C)CC2)c(F)cc1Nc1ncc(C(F)(F)F)c(NCCCN2CCOCCC2=O)n1 [Example 86] |
| 1 to 25 | O=C1OCCCN1CCCNc1nc(Nc2ccc(N3CCNCC3)cc2C2CC2)ncc1C(F)(F)F [Example 99] |
| 1 to 25 | CCc1cc(N2CCNCC2)ccc1Nc1ncc(C(F)(F)F)c(NCCCN2CCOCCC2=O)n1 [Example 84] |
| 1 to 25 | CCc1cc(N2CCN(C)CC2)ccc1Nc1ncc(Br)c(NCCCN2CCOCCC2=O)n1 [Example 76] |
